Measurements from patent US7534766B2, “Glucuronide metabolites and epimers thereof of tigecycline” (Wyeth, priority 2004, dated 2009).
“Also recorded” adds a separate entry of the source.

Key:
[1] = male, human, in vivo
Procedure: An open-label, inpatient, multiple-dose tigecycline, single-dose [^14C]tigecycline metabolic disposition and mass balance study was performed in six healthy male volunteers. The clinical protocol called for twelve subjects. Of these twelve, six received the radioactive dose (subjects 1, 4, 5, 6, 7, and 8 with subject 8 later dropping out of the study.) Eligible subjects were selected based on inclusion/exclusion criteria, medical history, physical examination and additional procedures outlined in the study protocol. Each subject received a 100 mg loading dose on the morning of Day 1, followed by a 50 mg maintenance dose every 12 hours for an additional 5 doses. On the morning of study Day 4, six subjects received a single 50 mg dose of [^14C]tigecycline (50 μCi). Each tigecycline dose was administered via a 30-minute intravenous infusion.
Serum samples were collected for metabolite profiling prior to tigecycline dosing and 1, 4, 8, 24 and 48 hours following the [^14C]-labeled dose. For metabolite profiling, urine samples were collected at 0-4, 4-8, 8-24 and 24-48 hours and fecal samples were collected up to 48 hours following the [^14C]-labeled dose. Serum and urine samples, and fecal homogenates were shipped on dry ice to the Biotransformation Division of Drug Safety and Metabolism, Wyeth Research, Collegeville, Pa. The details of the sample collection and sample storage are described in the mass balance portion of the study. The 24-48 hour urine and fecal samples for subject #6 were incomplete since the subject withdrew from the study. While samples from this subject were used for metabolite profiling, the samples were not included in the mass balance calculations.
Urine samples for metabolite profiling were extracted, as discussed below, using a method previously developed and used for rat and dog urine samples. Urine samples that had been collected at various intervals up to 48 hours following the dose of [^14C]tigecycline were thawed on ice prior to extraction. Aliquots (1 mL) of the individual urine samples were transferred to clean tubes and 0.2 M EDTA, for a final concentration of 40 mM EDTA, was added. […] Samples were mixed, centrifuged and the supernatants analyzed for metabolites by HPLC radiochromatography with selected samples also analyzed by LC/MS.
HPLC analyses were performed using a Waters 2695 Alliance Separation Module (Waters Corp., Milford, Mass.), a Waters Model 2487 dual wavelength UV absorbance detector, set to monitor 350 nm, and was in-line with a Gilson 215 liquid handler (Gilson, Middleton, Wis.) equipped to collect fractions at 20 second intervals. Fractions were collected into 96-well deep well Luma plates and analyzed using TopCount NXT. The autosampler temperature was set to 4° C. […]

[2] = LC/MS detection of tigecycline metabolites in CD-1 mouse serum and urine after intravenous tigecycline
Procedure: Fifteen male CD-1 mice, with an average weight of 31.3 g at the time of dosing, were used. Animals were given food and water ad libitum. Mice in the 0.5 and 2 hour blood collection groups were housed in standard cages, while those in the 4 hour blood collection group were housed in metabolism cages for the collection of urine. Mice were dosed by the Bioresources Department at Wyeth Research, Collegeville, Pa.
For mice and rabbits, the intravenous dosing solutions was prepared by dissolving 50 mg of tigecycline in 5.0 mL of 0.9% sterile saline solution to make a working stock solution. The working stock solution was diluted with 0.9% sterile saline solution to 0.5 mg/mL for mice and 4 mg/mL for rabbits. The mouse dose (5 mg/kg, 10 mL/kg) was administered as a bolus injection via the tail vein. The rabbit dose (4 mg/kg, 1 mL/kg) was administered as a bolus injection via the marginal vein of the ear.
For mice (n=5/time point), blood (approximately 0.7 mL) was collected by cardiac puncture at 0.5, 2 and 4 hours following administration of tigecycline. For rabbits, blood (approximately 7 mL) was collected via the ear vein at 0.5, 2 and 6 hours following the tigecycline dose. Serum was separated following clot formation at room temperature and centrifugation for 15 minutes at 4° C. and 3000 rpm. The serum was transferred to a fresh tube and was stored at approximately −70° C. until analysis as described below under “Serum Sample Preparation for LC/MS Analysis. In addition, urine was collected from mice in the 4 hour blood collection group and was stored at approximately −70° C. until analysis, as described below under “Urine Sample Preparation for LC/MS Analysis.”
Mouse urine was thawed and an aliquot (1 mL) transferred to a fresh tube. The sample was centrifuged at 14,000 rpm and room temperature for 10 minutes using a Model 5415C Eppendorf centrifuge (Brinkmann Instruments, Westbury, N.Y.) to remove any particulates. The sample was then transferred to a fresh tube and was analyzed by LC/MS, as described below under “Liquid Chromatography/Mass Spectrometry Analysis.”.
Mouse and rabbit serum samples were pooled at each collection time and analyzed for tigecycline, its epimer, tigecycline glucuronide (M7 and its epimer M6), 9-aminominocycline (M3) and N-acetyl-9-aminominocycline (M9 and its epimer M8). Aliquots of serum (500 μL) were transferred to new tubes and deuterated tigecycline (30 ng/mL final concentration) was added as an internal standard (quantitative analysis only). EDTA (40 μL of 0.5 M EDTA) was added to each sample and the samples vortex mixed. Acetonitrile (500 μL) was added to each sample, samples were vortex mixed and denatured protein separated by centrifugation at 14,000 rpm and room temperature for 10 minutes using a Model 5415C Eppendorf centrifuge (Brinkmann Instruments). The supernatant was transferred to a fresh tube and the solvent evaporated under a stream of nitrogen using a Turbovap Model LV evaporator (Caliper Life Sciences, Hopkinton, Mass.).
The HPLC system used for mass spectrometric analysis was a Waters Alliance Model 2695 HPLC system (Waters Corp., Milford, Mass.). It was equipped with a built-in autosampler and a Model 996 diode array UV detector. The UV detector was set to monitor 210-400 nm. Separations for metabolite characterization were accomplished on a Phenomenex Luna C18(2) column (150×2.1 mm, 5 μm) (Phenomenex, Torrance, Calif.) equipped with a Keystone Uniguard C18 guard column (10×2.1 mm) (Thermo Electron Corp., Bellefonte, Pa.). The column temperature was 25° C. The flow rate was 0.2 mL/min. Mobile phase A was 10 mM ammonium acetate in water and mobile phase B was acetonitrile.

SMILES	percent of the radioactivity in urine [1]	observed in mouse urine by LC/MS ([2]; mouse, in vivo, iv, 5 mg/kg)	observed in mouse serum by LC/MS ([2]; male CD-1 mice, 5 mg/kg IV tigecycline, 0.5, 2, 4 hours, 5 mg/kg)	observed in mouse urine by LC/MS ([2]; male CD-1 mice, 5 mg/kg IV tigecycline, urine 0-4 hours)	percent of the urinary radioactivity [1]
CC(C)(C)NCC(=O)O [Metabolite M3a, t-butylaminoacetic acid]	15-37%	–	–	–	–
CN(C)c1cc(NC(=O)CNC(C)(C)C)c(O)c2c1C[C@H]1C[C@H]3[C@@H](N(C)C)C(O[C@@H]4O[C@H](C(=O)O)[C@@H](O)[C@H](O)[C@H]4O)=C(C(N)=O)C(=O)[C@@]3(O)C(O)=C1C2=O [Metabolite M6, epimer of tigecycline glucuronide]	less than 1%	detected	–	–	–
CN(C)c1cc(NC(=O)CNC(C)(C)C)c(O)c2c1C[C@H]1C[C@H]3[C@H](N(C)C)C(O)=C(C(N)=O)C(=O)[C@@]3(O)C(O)=C1C2=O [Tigecycline]	–	–	observed; also recorded: detected	detected	–
CN(C)c1cc(NC(=O)CNC(C)(C)C)c(O)c2c1C[C@H]1C[C@H]3C(N(C)C)C(O[C@@H]4O[C@H](C(=O)O)[C@@H](O)[C@H](O)[C@H]4O)=C(C(N)=O)C(=O)[C@@]3(O)C(O)=C1C2=O (stereo in doubt) [Metabolite M7, tigecycline glucuronide]	–	detected	–	–	approximately 20%
